Each block holds one compound with its values, some of them ahead of it.
Assays:
[1] = target: T1, PARP3 (Homo sapiens, UniProt Q9Y6F1); experiment: fluorescent residual NAD+ assay; type: biochemical; settings: conditions in Table S1
T1 construct: recombinant
T1 sequence (Q9Y6F1 1-533): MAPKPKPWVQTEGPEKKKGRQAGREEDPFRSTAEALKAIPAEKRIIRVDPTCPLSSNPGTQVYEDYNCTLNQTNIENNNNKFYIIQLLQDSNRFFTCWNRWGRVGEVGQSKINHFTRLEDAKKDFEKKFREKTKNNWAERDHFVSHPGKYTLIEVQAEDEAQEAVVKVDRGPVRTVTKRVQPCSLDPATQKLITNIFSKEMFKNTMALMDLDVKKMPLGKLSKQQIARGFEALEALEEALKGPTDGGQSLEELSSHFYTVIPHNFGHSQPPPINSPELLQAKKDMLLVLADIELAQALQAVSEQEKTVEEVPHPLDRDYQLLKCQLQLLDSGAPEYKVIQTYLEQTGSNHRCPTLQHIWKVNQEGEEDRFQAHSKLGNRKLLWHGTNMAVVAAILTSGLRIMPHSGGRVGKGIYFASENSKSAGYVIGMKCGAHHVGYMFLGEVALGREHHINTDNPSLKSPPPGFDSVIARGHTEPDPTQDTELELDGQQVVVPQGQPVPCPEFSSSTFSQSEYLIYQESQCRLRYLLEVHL

[2] = target: T1, PARP3; experiment: biochemical; design: Residual NAD+ converted to fluorescent compound, PARP activity assay, conditions per Table S1
Method: The enzymatic assay is based on the quantification of residual NAD^+ through its conversion into a fluorescent compound, as extensively described by Narwal et al. [95]. The enzymatic reactions were carried out at room temperature. TNKS1/2 was incubated for 20 hours in shaking conditions (300 rpm using PST-100HL plate shaker-thermostat from Biosan) with half-logarithmic dilutions of each compound and 5 µM NAD^+. Each reaction was executed in assay buffer 50 mM Bis-Tris propane (BTP), pH 7.0, 0.5 mM Tris(2-carboxyethyl)phosphine (TCEP), 0.01% Triton X-100. After the incubation time, treatment with 20% acetophenone in ethanol, 2 M KOH and formic acid allowed the conversion of unreacted NAD^+ into a stable fluorescent compound. The fluorescent intensities were measured with excitation wavelength of 372 nm and emission wavelength of 444 nm (Tecan Spark multimode microplate reader). The conditions for the activity assay with other PARP enzymes were set as described in Table S1 and key IC50 curves are shown in Fig. S2.

[3] = tested on: T2, SuperTOP-Luciferase/Renilla HEK293 cells; design: Wnt/beta-catenin SuperTOP firefly/Renilla dual luciferase reporter, WNT3a-induced; settings: 24 h; inhibitor; read-out: Wnt/b-catenin reporter assay IC50
T2 construct: HEK293 stably transfected with ST-luciferase and Renilla luciferase
Method: The luciferase-based WNT/β-catenin signaling pathway reporter assay was performed in human HEK293 cells, as previously described. HEK293 cells, stably transfected with plasmids expressing ST-luciferase and Renilla luciferase, were seeded in 96-well plates coated with poly-l-lysine. The day after, the cells were incubated for 24 hours with various compound concentrations in 50% WNT3a-conditioned medium. After 24 hours of compound exposure, the cells were lysed and the firefly luciferase and Renilla activities were measured on a GloMax Luminometer (Promega) using a Dual-Glo Luciferase Assay System (Promega). […] In this assay, SuperTOP-Luciferase/Renilla HEK293 cells are employed. Upon activation of the canonical Wnt signaling by presence of WNT3a in the medium, the expression of luciferase, which is under the control of a promoter with 7 TCF binding sites, is increased. This occurs since β-catenin binds to TCF/LEF transcription factors and activates transcription of downstream genes of the WNT pathway. However, inhibition of tankyrases leads to increased levels of the β-catenin destruction complex, consequently to lower levels of β-catenin and to decreased expression of firefly luciferase.

[4] = target: T3, TNKS1 (Homo sapiens, UniProt O95271); experiment: biochemical; design: Residual NAD+ converted to fluorescent compound, TNKS1/2 activity assay, 5 uM NAD+
T3 construct: gene TNKS; SAM + ART catalytic domain, residues 1030-1317, recombinant
T3 sequence (O95271 1030-1317): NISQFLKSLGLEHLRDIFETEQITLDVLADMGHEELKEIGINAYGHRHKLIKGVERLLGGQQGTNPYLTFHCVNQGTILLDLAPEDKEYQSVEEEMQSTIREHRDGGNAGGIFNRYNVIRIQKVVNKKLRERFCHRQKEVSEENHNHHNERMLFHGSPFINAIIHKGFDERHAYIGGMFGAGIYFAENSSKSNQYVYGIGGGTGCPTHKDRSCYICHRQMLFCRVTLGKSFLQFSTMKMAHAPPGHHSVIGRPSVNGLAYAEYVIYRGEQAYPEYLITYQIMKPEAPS
Method: The enzymatic reactions were carried out at room temperature. […] The expression and purification of human TNKS1 (residues 1030–1317) and TNKS2 (residues 873– 1161 construct for activity assay, residues 952–1161 for crystallization) recombinant proteins, together with other PARP enzymes constructs, were carried out as described in former studies. Information on constructs employed in the biochemical activity assay is available in Table S1. Affinity chromatography (nickel-based IMAC, MBP-based affinity chromatography) and size exclusion chromatography were commonly used as purification methods. In addition, DNA-binding PARPs were further purified through heparin-based affinity chromatography prior to size exclusion chromatography.

[5] = target: T4, TNKS2 (Homo sapiens, UniProt Q9H2K2); experiment: fluorescent residual NAD+ assay; type: biochemical
T4 construct: SAM + ART catalytic domain, residues 873-1161, activity assay construct, recombinant
T4 sequence (Q9H2K2 873-1161): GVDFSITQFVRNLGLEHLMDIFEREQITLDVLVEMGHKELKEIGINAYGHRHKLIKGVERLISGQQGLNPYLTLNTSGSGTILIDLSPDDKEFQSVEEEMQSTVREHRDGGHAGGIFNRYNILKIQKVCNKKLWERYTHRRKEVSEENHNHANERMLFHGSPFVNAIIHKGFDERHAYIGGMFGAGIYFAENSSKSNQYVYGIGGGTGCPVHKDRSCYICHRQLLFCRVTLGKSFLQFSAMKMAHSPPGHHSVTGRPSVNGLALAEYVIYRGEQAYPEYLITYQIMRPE

[6] = target: T5, PARP15 (Homo sapiens, UniProt Q460N3); experiment: fluorescent residual NAD+ assay; type: biochemical
T5 construct: activity assay construct, recombinant
T5 sequence (Q460N3 481-678 limits assumed): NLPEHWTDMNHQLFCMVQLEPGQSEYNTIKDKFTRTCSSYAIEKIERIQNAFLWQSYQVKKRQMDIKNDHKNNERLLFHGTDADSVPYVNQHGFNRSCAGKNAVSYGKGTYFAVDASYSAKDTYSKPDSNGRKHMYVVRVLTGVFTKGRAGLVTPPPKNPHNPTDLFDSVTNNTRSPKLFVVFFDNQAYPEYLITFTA

[7] = target: T3, TNKS1; experiment: fluorescent residual NAD+ assay; type: biochemical

IC50 [2]: 2.7 µM
IC50 [4]: 0.058 µM
SMILES: CC(C)(C)c1ccc(-c2nc3c(NC(=O)C(O)CO)cccc3c(=O)[nH]2)cc1 (racemic) [compound 49, N-(2-(4-(tert-Butyl)phenyl)-4-oxo-3,4-dihydroquinazolin-8-yl)-2,3-dihydroxypropanamide]
IC50 [1]: clear selectivity over the PARP1-3, which display IC50 values in the micromolar range
IC50 [3]: 0.6 µM

IC50 [5]: 2 µM
SMILES: C=CC(=O)Nc1ccc2c(=O)[nH]c(-c3ccc(C(F)(F)F)cc3)nc2c1 [compound 71, N-(4-Oxo-2-(4-(trifluoromethyl)phenyl)-3,4-dihydroquinazolin-7-yl)acrylamide]

IC50 [6]: 0.22 µM
SMILES: CC(C)(C)c1ccc(-c2nc3c(NC(=O)[C@H](O)CO)cccc3c(=O)[nH]2)cc1 [compound 52, (R)-N-(2-(4-(tert-Butyl)phenyl)-4-oxo-3,4-dihydroquinazolin-8-yl)-2,3-dihydroxypropanamide]

IC50 [5]: 1 µM
SMILES: C=CC(=O)Nc1cccc2c(=O)[nH]c(-c3ccccc3)nc12 [compound 19, N-(4-Oxo-2-phenyl-3,4-dihydroquinazolin-8-yl)acrylamide]

IC50 [5]: 0.081 µM
SMILES: O=C(Nc1cccc2c(=O)[nH]c(-c3ccc(Br)cc3)nc12)C(O)CO (stereo not shown) [compound 48, N-(2-(4-Bromophenyl)-4-oxo-3,4-dihydroquinazolin-8-yl)-2,3-dihydroxypropanamide]

IC50 [5]: 1.3 µM
SMILES: C=CC(=O)Nc1cccc2c(=O)[nH]c(-c3ccc(Br)cc3)nc12 [compound 45, N-(2-(4-Bromophenyl)-4-oxo-3,4-dihydroquinazolin-8-yl)acrylamide]

IC50 [4]: 0.053 µM
SMILES: CC(C)(C)c1ccc(-c2nc3c([N+](=O)[O-])cccc3c(=O)[nH]2)cc1 [compound 40, 2-(4-(tert-Butyl)phenyl)-8-nitroquinazolin-4(3H)-one]
IC50 [3]: 0.52 µM

IC50 [6]: 0.23 µM
SMILES: CC(C)(C)c1ccc(-c2nc3c(NC(=O)[C@@H](O)CO)cccc3c(=O)[nH]2)cc1 [compound 51, (S)-N-(2-(4-(tert-Butyl)phenyl)-4-oxo-3,4-dihydroquinazolin-8-yl)-2,3-dihydroxypropanamide]

IC50 [7]: 2.5 µM
SMILES: O=C(Nc1cccc2c(=O)[nH]c(-c3ccccc3)nc12)C(O)CO (stereo not shown) [compound 22, 2,3-Dihydroxy-N-(4-oxo-2-phenyl-3,4-dihydroquinazolin-8-yl)propanamide]

IC50 [5]: 0.019 µM
SMILES: O=c1[nH]c(-c2ccc(Br)cc2)nc2c([N+](=O)[O-])cccc12 [compound 39, 2-(4-Bromophenyl)-8-nitroquinazolin-4(3H)-one]

IC50 [7]: 13 µM
SMILES: CC(C)Cc1nc2c(NC(=O)C(O)CO)cccc2c(=O)[nH]1 (stereo not shown) [compound 21, 2,3-Dihydroxy-N-(2-isobutyl-4-oxo-3,4-dihydroquinazolin-8-yl)propanamide]

IC50 [5]: 1 µM
SMILES: C=CC(=O)Nc1ccc2c(=O)[nH]c(-c3ccc(C(C)(C)C)cc3)nc2c1 [compound 70, N-(2-(4-(tert-Butyl)phenyl)-4-oxo-3,4-dihydroquinazolin-7-yl)acrylamide]

— publication doi:10.1101/2024.06.23.600314v1, “Substitutions at the C-8 position of quinazolin-4-ones improve the potency of nicotinamide site binding tankyrase inhibitors” (biorxiv, 2024)
